Key:
human GPR119 = target: T1, human GPR119 (Homo sapiens, UniProt Q8TDV5); experiment: Human GPR119 agonist activity with increase of intracellular cAMP concentration as index (CRE-luciferase reporter assay in hGPR119/CRE-luc/CHO(dhfr-) cells); assay type: cell-based; details: 1 μM test compound, 2 hr incubation; luciferase activity with 10 μM N-[4-(methylsulfonyl)phenyl]-5-nitro-6-{4-[4-(trifluoromethoxy)phenoxy]piperidin-1-yl}pyrimidin-4-amine = 100%, DMSO = 0%
T1 construct: expressed in transfected cells
T1 sequence (Q8TDV5 1-335): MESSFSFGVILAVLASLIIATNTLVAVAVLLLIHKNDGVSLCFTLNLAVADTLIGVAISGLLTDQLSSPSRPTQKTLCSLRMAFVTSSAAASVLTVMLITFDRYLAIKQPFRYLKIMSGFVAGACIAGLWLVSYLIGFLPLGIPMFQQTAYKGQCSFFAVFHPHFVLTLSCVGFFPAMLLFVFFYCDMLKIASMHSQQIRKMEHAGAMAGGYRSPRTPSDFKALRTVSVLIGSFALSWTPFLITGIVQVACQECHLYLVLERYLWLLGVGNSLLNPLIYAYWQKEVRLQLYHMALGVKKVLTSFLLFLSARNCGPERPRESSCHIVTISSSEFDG
Method: Evaluation of Human GPR119 Agonist Activity with Increase of Intracellular Camp Concentration as Index
(1) Construction of Expression Plasmid of Human GPR119 Gene
Using High Fidelity RNA PCR Kit (Takara Bio Inc.), human GPR119 gene was cloned by PCR using cDNA library synthesized from human brain mRNA (Clontech) as a template and synthetic DNA having the following sequence. Primer 1 and Primer 2 were is prepared by adding cleavage sites for Sal I and Nhe I based on the base sequence information of human GPR119 gene.
PCR was performed using Pyrobest DNA polymerase (Takara Bio Inc.). The obtained PCR product was cloned to pUC118 (Takara Bio Inc.), and the base sequence was […] and digested with restriction enzymes Sal I, Nhe I. The obtained DNA fragment was inserted into an animal cell expression vector pAKKO-111H (plasmid same as pAKKO-1.111H described in Biochem. Biophys. Acta, Hinuma, S. et al., 1219, 251-259 (1994)) similarly digested with Sal I, Nhe I, whereby an expression plasmid pAKKO-111H/hGPR119 was prepared.
(2) Construction of Reporter Plasmid
Zeocin resistance gene was cloned by PCR using plasmid pcDNA3.1/Zeo (Invitrogen) as a template, synthetic DNA having the following sequences wherein cleavage sites for restriction enzymes Sal I and BamH I are added to before and after a region containing SV40 Ori and a region containing SV40pA, which are located at the upstream and downstream of Zeocin resistance gene of this plasmid, as a primer set, and KOD polymerase (TOYOBO).
The obtained PCR product was inserted into pCR-BluntII (Invitrogen). A fragment containing a Zeocine resistance gene obtained by digesting the plasmid with restriction enzymes Sal I and BamH I was inserted into plasmid pGL3(R2.2)-Basic Vector (promega) similarly digested with Sal I and Bam HI to give Zeocin resistance plasmid pGL3(R2.2)/Zeocin-Basic Vector.
A reporter plasmid containing 4 cAMP responsive elements (CRE) connected in tandem was prepared using the following 5′-terminal phosphorylated synthetic DNA.
First, a DNA fragment containing a CRE sequence obtained by annealing CRE-Upper and CRE-Lower and elongating with KOD polymerase was inserted into pCR-BluntII to give pCR-BluntII-CRE. A fragment cleaved from pCR-BluntII-CRE with restriction enzymes Kpn I and Hind III was inserted into pGL3(R2.2)/Zeocin-Basic Vector similarly digested with Kpn I and Hind III to give reporter plasmid pGL3(R2.2)/Zeocin-CRE-luc.
(3) Introduction of Human GPR119 Gene and Reporter Gene into CHO(dhfr-) Cells and Acquirement of Expressing Cell
CHO(dhfr-) cells in MEMα (minimum essential medium alpha) (Nikken bio medical laboratory) medium containing 10% fetal bovine serum, 100 U/mL penicillin and 100 μg/mL streptomycin (Invitrogen) were detached by a treatment with trypsin-EDTA (ethylenediaminetetraacetic acid) (Invitrogen), the cells were washed with PBS (Phosphate-buffered saline), centrifuged (1000 rpm, 5 min) and suspended in PBS at a cell density of 1×10^7 cells/mL. Then, DNA was introduced into the cell by a gene pulser (Bio-Rad) under the following conditions. That is, 1×10^7 cells, plasmid pGL3(R2.2)/Zeocin-CRE-luc (15 μg), which was obtained in (2) and linearized with BssH II, and pAKKO-111H (5 μg) were added in a 0.4 cm gap cuvette, and the mixture was electroporated at voltage […], capacitance 950 μF. The cells were placed in the above-mentioned medium, cultured for 24 hr, and the cells were detached and centrifuged. The cells were diluted to 250 cells/well, plated in a 96 well plate (Corning) and cultivated in a CO2 incubator at 37° C. to give a transformant. Then, forskolin was added to the obtained transformant and a strain (CRE-luc/CHO(dhfr-) cell) that induces luciferase expression was selected. […]

male Wistar fatty rats = experiment: Oral glucose tolerance test (OGTT), hypoglycemic action; assay type: in vivo, rat; details: 10 mg/kg oral; for blood glucose lowering rate (%): OGTT in WF rats, decrease rate of AUC0-120min with control group as 100%, **p ≦ 0.01 vs control; for plasma glucose AUC0-120 min: 22-week-old WF rats fasted overnight, glucose 1 g/kg oral 60 min after compound, control group 32734.2
Method: A hypoglycemic action of the compound of the present invention was examined in an oral glucose tolerance test (OGTT) using male Wistar fatty rats (WF rat, TAKEDA RABICS).
First, 22-week-old WF rats fasted overnight were divided into groups (6 per group), and blood samples were collected and used as plasma samples before drug administration (−60 min). Thereafter, 0.5% methylcellulose (control group) and a test compound was orally administered at 10 mg/kg. At 60 min after compound administration, each individual was loaded by oral administration of glucose at 1 g/kg, and the blood was drawn before glucose loading (0 min) and 10, 30, 60 and 120 min after loading. The plasma glucose concentration was measured using L type Waco Glu2 (Wako) and Hitachi automatic analyzer 7080 (Hitachi Instruments Service Co., Ltd.). The 0-120 min area under time curve (AUC0-120min) and the decrease rate when the control group was 100% were calculated from the plasma glucose values measured.

Compound | GPR119 agonist activity (%) at 1 μM concentration (human GPR119) | blood glucose lowering rate (%) (male Wistar fatty rats) | plasma glucose AUC0-120 min (male Wistar fatty rats)
CCc1cnc(N2CCC(Oc3cc(N4CCc5cc(S(C)(=O)=O)ccc54)ncn3)CC2)nc1 [Example 33, 1-(6-{[1-(5-ethylpyrimidin-2-yl)piperidin-4-yl]oxy}pyrimidin-4-yl)-5-(methylsulfonyl)-2,3-dihydro-1H-indole] | 74% | 23.4** % | 25073.3 mg·min/dL
CCc1cnc(N2CCC(Oc3cc(N4CCc5cc(C(=O)N(C)CCO)ccc54)ncn3)CC2)nc1 [Example 21, 1-(6-{[1-(5-ethylpyrimidin-2-yl)piperidin-4-yl]oxy}pyrimidin-4-yl)-N-(2-hydroxyethyl)-N-methyl-2,3-dihydro-1H-indole-5-carboxamide] | 80% |  | 
CC(C)c1noc(N2CCC(Oc3cc(N4CCc5cc(C(=O)N(C)CCO)ccc54)ncn3)CC2)n1 [Example 30, N-(2-hydroxyethyl)-N-methyl-1-[6-({1-[3-(1-methylethyl)-1,2,4-oxadiazol-5-yl]piperidin-4-yl}oxy)pyrimidin-4-yl]-2,3-dihydro-1H-indole-5-carboxamide] | 78% |  | 
CC(C)c1noc(N2CCC(N(c3cc(N4CCc5cc(S(C)(=O)=O)ccc54)ncn3)C(F)(F)F)CC2)n1 [Example 32, N-{1-[3-(1-methylethyl)-1,2,4-oxadiazol-5-yl]piperidin-4-yl}-6-[5-(methylsulfonyl)-2,3-dihydro-1H-indol-1-yl]-N-(trifluoromethyl)pyrimidin-4-amine] | 92% |  | 
CC(C)(C)OC(=O)N1CCC(n2ccc3c(N4CCc5cc(S(C)(=O)=O)ccc54)ccnc32)CC1 [Example 3, tert-butyl 4-{4-[5-(methylsulfonyl)-2,3-dihydro-1H-indol-1-yl]-1H-pyrrolo[2,3-b]pyridin-1-yl}piperidine-1-carboxylate] | 87% |  | 
COCCN(C)C(=O)c1ccc2c(c1)CCN2c1cc(OC2CCN(c3nc(C(C)C)no3)CC2)ncn1 [Example 31, N-(2-methoxyethyl)-N-methyl-1-[6-({1-[3-(1-methylethyl)-1,2,4-oxadiazol-5-yl]piperidin-4-yl}oxy)pyrimidin-4-yl]-2,3-dihydro-1H-indole-5-carboxamide] | 80% |  | 
CC(C)(C)OC(=O)N1CCC(Cn2ccc3c(N4CCc5cc(S(C)(=O)=O)ccc54)ncnc32)C1 (stereo in doubt) [Example 12, tert-butyl (3S)-3-({4-[5-(methylsulfonyl)-2,3-dihydro-1H-indol-1-yl]-7H-pyrrolo[2,3-d]pyrimidin-7-yl}methyl)pyrrolidine-1-carboxylate] | 84% |  | 

Now from value to molecule, other results behind:

GPR119 agonist activity (%) at 1 μM concentration (human GPR119) | Compound | blood glucose lowering rate (%) (male Wistar fatty rats) | plasma glucose AUC0-120 min (male Wistar fatty rats)
82% | CC(C)SC(=O)N1CCC(Oc2cc(N3CCc4cc(S(C)(=O)=O)ccc43)ncn2)CC1 [Example 35, S-(1-methylethyl)4-({6-[5-(methylsulfonyl)-2,3-dihydro-1H-indol-1-yl]pyrimidin-4-yl}oxy)piperidine-1-carbothioate] | 23.0** % | 25212.5 mg·min/dL
82% | CC(C)SC(=O)N1CCC(N(c2cc(N3CCc4cc(S(C)(=O)=O)ccc43)ncn2)C(F)(F)F)CC1 [Example 71, S-(1-methylethyl) 4-[{6-[5-(methylsulfonyl)-2,3-dihydro-1H-indol-1-yl]pyrimidin-4-yl}(trifluoromethyl)amino]piperidine-1-carbothioate] |  | 
75% | CCc1cnc(N2CCC(Oc3cc(N4CCc5cc(NC(=O)CO)ccc54)ncn3)CC2)nc1 [Example 56, N-[1-(6-{[1-(5-ethylpyrimidin-2-yl)piperidin-4-yl]oxy}pyrimidin-4-yl)-2,3-dihydro-1H-indol-5-yl]-2-hydroxyacetamide] |  | 
85% | CCc1noc(N2CCC(Oc3cc(N4CCc5cc(S(C)(=O)=O)ccc54)ncn3)CC2)n1 [Example 41, 1-(6-{[1-(3-ethyl-1,2,4-oxadiazol-5-yl)piperidin-4-yl]oxy}pyrimidin-4-yl)-5-(methylsulfonyl)-2,3-dihydro-1H-indole] |  | 
85% | CC(C)SC(=O)N1CCC(Oc2cc(N3CCc4cc(NC(=O)C5CCCO5)ccc43)ncn2)CC1 [Example 50, S-(1-methylethyl)4-{[6-(5-{[(2R)-tetrahydrofuran-2-ylcarbonyl]amino}-2,3-dihydro-1H-indol-1-yl)pyrimidin-4-yl]oxy}piperidine-1-carbothioate] |  | 
77% | CC(C)c1noc(N2CCC(Oc3cc(N4CCc5cc(S(C)(=O)=O)cc(F)c54)ncn3)CC2)n1 [Example 64, 7-fluoro-1-[6-({1-[3-(1-methylethyl)-1,2,4-oxadiazol-5-yl]piperidin-4-yl}oxy)pyrimidin-4-yl]-5-(methylsulfonyl)-2,3-dihydro-1H-indole] |  | 
84% | CC(C)OC(=O)N1CCC(Oc2cc(N3CCc4cc(NC(=O)CO)ccc43)ncn2)CC1 [Example 55, isopropyl 4-[(6-{5-[(hydroxyacetyl)amino]-2,3-dihydro-1H-indol-1-yl}pyrimidin-4-yl)oxy]piperidine-1-carboxylate] |  | 
83% | CC(C)OC(=O)N1CCC(N(c2cc(N3CCc4cc(S(C)(=O)=O)ccc43)ncn2)C(F)(F)F)CC1 [Example 70, 1-methylethyl 4-[{6-[5-(methylsulfonyl)-2,3-dihydro-1H-indol-1-yl]pyrimidin-4-yl}(trifluoromethyl)amino]piperidine-1-carboxylate] |  | 
77% | COc1cnc(N2CCC(N(c3cc(N4CCc5cc(S(C)(=O)=O)ccc54)ncn3)C(F)(F)F)CC2)nc1 [Example 72, N-[1-(5-methoxypyrimidin-2-yl)piperidin-4-yl]-6-[5-(methylsulfonyl)-2,3-dihydro-1H-indol-1-yl]-N-(trifluoromethyl)pyrimidin-4-amine] |  | 
